For orientation: GI50 means the concentration that inhibits growth by half. A higher GI50 goes with lower sensitivity of the cells.

Type in all cases: cell-based
Assay [1] relates to HCC827-ASV cells (human EGFR exon 20 insertion mutant A769_D770insASV). Description: Cell growth inhibition (CellTiter-Glo, 3 days) in HCC827-ASV. Particulars: 72 h, 3 days after administration. The method in brief:
(§1)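 Growth inhibition used a CellTiter-Glo luminescence read-out after 3 days of compound exposure at various concentrations. Cells were plated the day before at 5000/well in RPMI plus 10% FBS. The lines are HCC827 transduced by lentivirus with codon-optimized EGFR ASV or ERBB2 YVMA exon 20 insertions.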
A general note: ATP-based viability assays read luminescence as a measure of living cells.

Another assay relates to A431 cells. The experiment in a line: Cell growth inhibition (CellTiter-Glo, 3 days) in A431. Conditions: Homo sapiens, A-431, 72 h, 3 days after administration. In a few lines:
(§2)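 HCC827 cells in RPMI/10% FBS and A431 cells in DMEM/10% FBS were seeded at 5000 cells/well and left overnight. Compound was then added over a concentration range for 3 days of incubation, and viability was read by CellTiter-Glo luminescence.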

Assay [2] relates to HCC827-YVMA cells (human ERBB2 exon20 insertion mutant A775_G776ins YVMA). The experiment in a line: Cell growth inhibition (CellTiter-Glo, 3 days) in HCC827-YVMA. Particulars: 72 h, 3 days after administration. In a few lines:
as §1

The test system of assay [3] is HCC827-SVD cells (human EGFR exon 20 insertion mutant D770_N771 insSVD). Description: Cell growth inhibition (CellTiter-Glo, 3 days) in HCC827-SVD. Conditions: 72 h, 3 days after administration. In a few lines:
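HCC827 cells carrying lentiviral codon-optimized EGFR D770_N771 insSVD, with endogenous EGFR knocked out by CRISPR (single clone), seeded at 5000 cells/well in RPMI with 10% FBS. Viability read by CellTiter-Glo luminescence.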

The test system of the next assay is HCC827 cells. Description: Cell growth inhibition (CellTiter-Glo, 3 days) in HCC827. Particulars: Homo sapiens, 72 h, 3 days after administration. In a few lines: as §2

Each structure is given as a SMILES string. Some results are limits rather than exact numbers.

Consider `C=CC(=O)N1CCC(Nc2cc3c(Nc4ccc(Oc5ccnc(NC6CCOCC6)c5)cc4F)ncnc3cc2OC)CC1` [Compound 185, 1-(4-((4-((2-fluoro-4-((2-((tetrahydro-2H-pyran-4-yl)amino)pyridin-4-yl)oxy)phenyl)amino)-7-methoxyquinazolin-6-yl)amino)piperidin-1-yl)prop-2-en-1-one], for which the GI50 in assay [1] is under 30 nM; in the assay with A431 cells, 100 to 300 nM; in assay [2], under 30 nM; in assay [3], under 30 nM; in the assay on HCC827 cells it was under 30 nM.
As to `C=CC(=O)N1CCC(Nc2cc3c(Nc4ccc(Oc5ccnc(-c6nc(C)no6)c5)cc4F)ncnc3cc2OC)CC1` [Compound 191, 1-(4-((4-((2-fluoro-4-((2-(3-methyl-1,2,4-oxadiazol-5-yl)pyridin-4-yl)oxy)phenyl)amino)-7-methoxyquinazolin-6-yl)amino)piperidin-1-yl)prop-2-en-1-one], the concentration for 50% growth inhibition (GI50) was under 30 nM in assay [1]; 300 to 600 nM with A431 cells; under 30 nM in assay [2]; under 30 nM in assay [3]; 30 to 60 nM in the assay on HCC827 cells.
Regarding `C=CC(=O)N1CCC(Nc2cc3c(Nc4ccc(Oc5ccnc(-c6nnc(C)o6)c5)cc4F)ncnc3cc2OC)CC1` [Compound 193, 1-(4-((4-((2-fluoro-4-((2-(5-methyl-1,3,4-oxadiazol-2-yl)pyridin-4-yl)oxy)phenyl)amino)-7-methoxyquinazolin-6-yl)amino)piperidin-1-yl)prop-2-en-1-one], the 50% growth inhibitory concentration (GI50) in assay [1] is under 30 nM; with A431 cells, at least 1000 nM; in assay [2] it was under 30 nM; in assay [3] it was under 30 nM; with HCC827 cells it was 100 to 300 nM.
On to `C=CC(=O)N1CCC(Nc2cc3c(Nc4ccc(Oc5ccnc(CN6CCOCC6)c5)cc4F)ncnc3cc2OC)CC1` [Compound 210, 1-(4-((4-((2-fluoro-4-((2-(morpholinomethyl)pyridin-4-yl)oxy)phenyl)amino)-7-methoxyquinazolin-6-yl)amino)piperidin-1-yl)prop-2-en-1-one], for which the GI50 was 30 to 60 nM in assay [1]; 600 to 1000 nM with A431 cells; under 30 nM in assay [2]; 60 to 100 nM in assay [3]; 300 to 600 nM with HCC827 cells.
The like results for `C=CC(=O)N1CCC(Nc2cc3c(Nc4ccc(Oc5ccnc(-n6cc(C)cn6)c5)cc4F)ncnc3cc2OC)CC1` [Compound 232, 1-(4-((4-((2-fluoro-4-((2-(4-methyl-1H-pyrazol-1-yl)pyridin-4-yl)oxy)phenyl)amino)-7-methoxyquinazolin-6-yl)amino)piperidin-1-yl)prop-2-en-1-one] were, in that order, under 30 nM, at least 1000 nM, under 30 nM, 30 to 60 nM and 60 to 100 nM.
For `C=CC(=O)N1CCC(Nc2cc3c(Nc4ccc(Oc5ccnc(-c6ccccc6)c5)cc4F)ncnc3cc2OC)CC1` [Compound 233, 1-(4-((4-((2-fluoro-4-((2-phenylpyridin-4-yl)oxy)phenyl)amino)-7-methoxyquinazolin-6-yl)amino)piperidin-1-yl)prop-2-en-1-one], the 50% growth inhibitory concentration (GI50) in assay [1] was under 30 nM; in the assay on A431 cells, at least 1000 nM; in assay [2] it was under 30 nM; in assay [3], 30 to 60 nM; with HCC827 cells, 60 to 100 nM.
Turning to `C=CC(=O)N1CCC(Nc2cc3c(Nc4ccc(Oc5ccnc(NC6CCC6)c5)cc4F)ncnc3cc2OC)CC1` [Compound 243, 1-(4-((4-((4-((2-(cyclobutylamino)pyridin-4-yl)oxy)-2-fluorophenyl)amino)-7-methoxyquinazolin-6-yl)amino)piperidin-1-yl)prop-2-en-1-one], the GI50 in assay [1] is under 30 nM; in the assay with A431 cells it was 300 to 600 nM; in assay [2], under 30 nM; in assay [3] it was under 30 nM; in the assay on HCC827 cells, 30 to 60 nM.
As for `C=CC(=O)N1CCC(Nc2cc3c(Nc4ccc(Oc5ccnc(N6C[C@H](OC)[C@H](OC)C6)n5)cc4F)ncnc3cc2OC)CC1` [Compound 260, 1-(4-((4-((4-((2-((3R,4S)-3,4-dimethoxypyrrolidin-1-yl)pyrimidin-4-yl)oxy)-2-fluorophenyl)amino)-7-methoxyquinazolin-6-yl)amino)piperidin-1-yl)prop-2-en-1-one], the GI50 in assay [1] was under 30 nM; in the assay with A431 cells, at least 1000 nM; in assay [2], under 30 nM; in assay [3], under 30 nM; in the assay on HCC827 cells it was 100 to 300 nM.
Regarding `C=CC(=O)N1CCC(Nc2cc3c(Nc4ccc(Oc5ccn(-c6cc(F)c(C)cn6)n5)c(Cl)c4)ncnc3cc2OC)CC1` [Example 17, 1-(4-((4-((3-chloro-4-((1-(4-fluoro-5-methylpyridin-2-yl)-1H-pyrazol-3-yl)oxy)phenyl)amino)-7-methoxyquinazolin-6-yl)amino)piperidin-1-yl)prop-2-en-1-one], the 50% growth inhibitory concentration (GI50) in assay [1] lay in the range of 600 to 1000 nM; in the assay on A431 cells it was 100 to 300 nM; in assay [2], 600 to 1000 nM; in assay [3] it was 100 to 300 nM; in the assay on HCC827 cells, 60 to 100 nM.
For `C=CC(=O)N1CCC(Nc2cc3c(Nc4ccc(Oc5ccn(-c6ccc(C)nc6)n5)cc4F)ncnc3cc2OCC)CC1` [Example 18, 1-(4-((7-ethoxy-4-((2-fluoro-4-((1-(6-methylpyridin-3-yl)-1H-pyrazol-3-yl)oxy)phenyl)amino)quinazolin-6-yl)amino)piperidin-1-yl)prop-2-en-1-one], the GI50 in assay [1] is under 30 nM; in the assay on A431 cells it was 100 to 300 nM; in assay [2] it was under 30 nM; in assay [3], under 30 nM; in the assay with HCC827 cells, under 30 nM.
For the molecule `C=CC(=O)N1CCC(Nc2cc3c(Nc4cc(Cl)c(Oc5ccn(-c6cnc(C)c(F)c6)n5)cc4F)ncnc3cc2OC)CC1` [Example 19, 1-(4-((4-((5-chloro-2-fluoro-4-((1-(5-fluoro-6-methylpyridin-3-yl)-1H-pyrazol-3-yl)oxy)phenyl)amino)-7-methoxyquinazolin-6-yl)amino)piperidin-1-yl)prop-2-en-1-one], the concentration for 50% growth inhibition (GI50) in assay [1] was 30 to 60 nM; with A431 cells it was 100 to 300 nM; in assay [2] it was 60 to 100 nM; in assay [3] it was 30 to 60 nM; with HCC827 cells, under 30 nM.
For the molecule `C=CC(=O)N1CCC(Nc2cc3c(Nc4ccc(Oc5ccn(-c6cnc(C)c(F)c6)n5)c(Cl)c4)ncnc3cc2OC)CC1` [Example 20, 1-(4-((4-((3-chloro-4-((1-(5-fluoro-6-methylpyridin-3-yl)-1H-pyrazol-3-yl)oxy)phenyl)amino)-7-methoxyquinazolin-6-yl)amino)piperidin-1-yl)prop-2-en-1-one], the 50% growth inhibitory concentration (GI50) in assay [1] was in the range of 60 to 100 nM; in the assay with A431 cells, 100 to 300 nM; in assay [2] it was 100 to 300 nM; in assay [3], 100 to 300 nM; in the assay on HCC827 cells, 30 to 60 nM.
Regarding `C=C(F)C(=O)N1CCC(Nc2cc3c(Nc4ccc(Oc5ccn(-c6cnc(C)c(F)c6)n5)cc4F)ncnc3cc2OC)CC1` [Example 23, 2-fluoro-1-(4-((4-((2-fluoro-4-((1-(5-fluoro-6-methylpyridin-3-yl)-1H-pyrazol-3-yl)oxy)phenyl)amino)-7-methoxyquinazolin-6-yl)amino)piperidin-1-yl)prop-2-en-1-one], the GI50 in assay [1] was at least 1000 nM; with A431 cells it was at least 1000 nM; in assay [2], 600 to 1000 nM; in assay [3], at least 1000 nM; with HCC827 cells, at least 1000 nM.
Regarding `CC#CC(=O)N1CCC(Nc2cc3c(Nc4ccc(Oc5ccn(-c6cnc(C)c(F)c6)n5)cc4F)ncnc3cc2OC)CC1` [Example 24, 1-(4-((4-((2-fluoro-4-((1-(5-fluoro-6-methylpyridin-3-yl)-1H-pyrazol-3-yl)oxy)phenyl)amino)-7-methoxyquinazolin-6-yl)amino)piperidin-1-yl)but-2-yn-1-one], the GI50 (in assay [1]; in the assay on A431 cells; in assay [2]; in assay [3]; in the assay with HCC827 cells) was at least 1000 nM each time.
Regarding `C=C(F)C(=O)N1CCC(Nc2cc3c(Nc4ccc(Oc5ccn(-c6ccc(C)nc6)n5)cc4F)ncnc3cc2OC)CC1` [Example 25, 2-fluoro-1-(4-((4-((2-fluoro-4-((1-(6-methylpyridin-3-yl)-1H-pyrazol-3-yl)oxy)phenyl)amino)-7-methoxyquinazolin-6-yl)amino)piperidin-1-yl)prop-2-en-1-one], the GI50 (in assay [1]; in the assay with A431 cells; in assay [2]; in assay [3]; in the assay with HCC827 cells) was at least 1000 nM each time.
Consider `C=CC(=O)N1CCC(Nc2cc3c(Nc4ccc(Oc5nc(-c6ccnn6C)cs5)cc4F)ncnc3cc2OC)CC1` [Example 26, 1-(4-((4-((2-fluoro-4-((4-(1-methyl-1H-pyrazol-5-yl)thiazol-2-yl)oxy)phenyl)amino)-7-methoxyquinazolin-6-yl)amino)piperidin-1-yl)prop-2-en-1-one], for which the GI50 in assay [1] was 30 to 60 nM; in the assay on A431 cells, 100 to 300 nM; in assay [2], 30 to 60 nM; in assay [3], 30 to 60 nM; in the assay on HCC827 cells, 60 to 100 nM.
Consider `C=CC(=O)N1CCC(Nc2cc3c(Nc4ccc(Oc5ccnc(-c6ccc(C)nc6)c5)cc4F)ncnc3cc2OC)CC1` [Example 27, 1-(4-((4-((2-fluoro-4-((6′-methyl-[2,3′-bipyridin]-4-yl)oxy)phenyl)amino)-7-methoxyquinazolin-6-yl)amino)piperidin-1-yl)prop-2-en-1-one], for which the GI50 in assay [1] is 30 to 60 nM; in the assay with A431 cells, at least 1000 nM; in assay [2], 60 to 100 nM; in assay [3] it was 60 to 100 nM; with HCC827 cells it was 100 to 300 nM.

Source of the values: patent US20240398805A1, “QUINAZOLINE DERIVED COMPOUNDS AS EGFR INHIBITORS AND THEIR USES THEREOF” (ACCUTAR BIOTECHNOLOGY INC., priority 2021, published 2024).
